Experimental findings from patent US20230066011A1, “PYRROLOPYRIMIDINE DERIVATIVE, AND PHARMACEUTICAL COMPOSITION FOR PREVENTING OR TREATING PROTEIN KINASE-RELATED DISEASE COMPRISING SAME AS ACTIVE INGREDIENT” (VORONOI CO., LTD., priority 2019, published 2023) are described below.

A value given as a limit tells only on which side of the number the result lay.

One experiment deals with T1, human GST-CLK1 (Homo sapiens, UniProt P49759).
T1 construct: purified human GST-CLK1 (129-end, SignalChem) enzyme; purchased SignalChem
T1 sequence (P49759 129-484 limits assumed): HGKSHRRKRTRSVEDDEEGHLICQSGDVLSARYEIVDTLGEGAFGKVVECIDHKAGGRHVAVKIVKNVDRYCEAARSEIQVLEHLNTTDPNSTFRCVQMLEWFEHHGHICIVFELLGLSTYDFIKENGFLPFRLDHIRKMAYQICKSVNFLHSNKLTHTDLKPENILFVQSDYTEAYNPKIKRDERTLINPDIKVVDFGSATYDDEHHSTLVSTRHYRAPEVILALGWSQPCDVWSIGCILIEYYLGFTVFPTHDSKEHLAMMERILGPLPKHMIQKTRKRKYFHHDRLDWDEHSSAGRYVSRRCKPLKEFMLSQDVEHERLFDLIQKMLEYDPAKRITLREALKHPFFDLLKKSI
The experiment can be described thus: GST-CLK1 enzyme inhibition, ADP-Glo kinase assay. The format is biochemical. The settings on record: ATP 10 μM, GST-CLK1 129-end. In short, it runs like this: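 Human GST-CLK1 (129-end, 3 ng) reacted with substrate and 10 μM ATP for 1 h at 25° C in 40 mM Tris-HCl pH 7.4, 20 mM MgCl2, 0.5 mg/mL BSA, 50 μM DTT. ADP-Glo luminescence was normalised to solvent control; IC50 (nM) from 3 data sets.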
(In ADP-Glo the light output rises with the ADP produced.)

For a further experiment, the system named is IL-6. The experiment can be described thus: Inhibition of LPS-induced IL-6 secretion of THP-1 monocytes (ELISA). The format is cell-based, human. The note with it: Homo sapiens, THP-1; compound 0.5 μM, LPS 500 ng/mL, 24 hours; read-out: THP1/IL6 (% inhib). In short, it runs like this: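 THP-1 monocytes grown 16 h at 37 °C, pretreated 1 h with compound at final 0.5 μM, then stimulated with LPS at final 500 ng/mL for 24 h. IL-6 and TNF-α in culture supernatant measured by ELISA (OD 450 nm).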
A general note: An ELISA detects its analyte on a solid surface through an enzyme-linked reagent.

A further experiment addresses T2, TTK (Homo sapiens, UniProt P33981).
T2 sequence (P33981 1-857): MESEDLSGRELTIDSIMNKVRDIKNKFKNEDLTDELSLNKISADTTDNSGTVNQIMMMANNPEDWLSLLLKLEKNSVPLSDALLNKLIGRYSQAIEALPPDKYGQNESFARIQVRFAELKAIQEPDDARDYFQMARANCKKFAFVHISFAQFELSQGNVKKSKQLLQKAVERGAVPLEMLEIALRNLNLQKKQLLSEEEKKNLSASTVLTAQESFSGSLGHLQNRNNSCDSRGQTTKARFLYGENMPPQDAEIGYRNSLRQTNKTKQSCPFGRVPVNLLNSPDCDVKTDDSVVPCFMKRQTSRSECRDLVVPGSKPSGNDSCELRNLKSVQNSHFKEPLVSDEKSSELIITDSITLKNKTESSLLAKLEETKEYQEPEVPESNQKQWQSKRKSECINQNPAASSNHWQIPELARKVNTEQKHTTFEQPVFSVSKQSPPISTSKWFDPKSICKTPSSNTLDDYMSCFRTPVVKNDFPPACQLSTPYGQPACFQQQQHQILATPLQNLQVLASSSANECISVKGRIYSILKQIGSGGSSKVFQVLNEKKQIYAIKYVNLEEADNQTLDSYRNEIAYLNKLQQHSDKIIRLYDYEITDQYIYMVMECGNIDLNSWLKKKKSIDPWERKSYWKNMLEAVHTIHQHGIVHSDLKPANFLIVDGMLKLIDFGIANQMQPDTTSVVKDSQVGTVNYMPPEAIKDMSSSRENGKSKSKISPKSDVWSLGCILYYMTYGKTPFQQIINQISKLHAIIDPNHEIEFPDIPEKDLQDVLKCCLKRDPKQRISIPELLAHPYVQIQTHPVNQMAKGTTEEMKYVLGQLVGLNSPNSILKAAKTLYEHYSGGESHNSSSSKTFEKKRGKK
The experiment can be described thus: TTK enzyme inhibition, ADP-Glo kinase assay. The format is biochemical. Set-up: purchased SignalChem T20-10G. The note with it: ATP 5 μM. In short, it runs like this: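 Purified human TTK (7.5 ng) was reacted with 5 μM ATP and 0.2 μg MBP substrate for 4 h at 25 °C in 40 mM Tris-HCl pH 7.4, 20 mM MgCl2, 0.1 mg/mL BSA, 50 μM DTT. ADP formation was read by ADP-Glo luminescence, and IC50 was taken relative to solvent control.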

One may read the IC50 as the midpoint of a concentration-inhibition curve. The low end stands for greater potency, the high end for weaker potency. In the case of `CCNc1nc(Nc2ccc(C(=O)N3CCC(N4CCOCC4)CC3)c3c2OCC3)nc2[nH]cc(C(F)(F)F)c12` [Example 438, (7-((4-(ethylamino)-5-(trifluoromethyl)-7H-pyrrolo[2,3-d]pyrimidin-2-yl)amino)-2,3-dihydrobenzo-furan-4-yl)(4-morpho-linopiperidin-1-yl)methanone], the IC50 on human GST-CLK1 and against TTK was < 0.1 µM in each case. For the same compound, the inhibition at 0.5 µM in the experiment with IL-6 came to 25.8%.
On to `CNc1nc(Nc2ccc(C(=O)N3CCN(C4COC4)CC3)c3c2OCCO3)nc2[nH]cc(C(F)(F)F)c12` [Example 397, (8-((4-(methylamino)-5-(trifluoromethyl)-7H-pyrrolo[2,3-d]pyrimidin-2-yl)amino)-2,3-dihydrobenzo[b] [1,4]dioxin-5-yl) (4-(oxetan-3-yl)piperazin-1-yl)methanone], for which the IC50 on human GST-CLK1 and on TTK was < 0.1 µM in each case. Besides, the inhibition at 0.5 µM in the experiment on IL-6 came to 32%.
On to `CCNc1nc(Nc2ccc(S(=O)(=O)N3CCC(N4CCOCC4)CC3)c3c2OCCO3)nc2[nH]cc(C(F)(F)F)c12` [Example 430, N^4-ethyl-N^2-(8-((4-morpholino-piperidin-1-yl)sulfonyl)-2,3-dihydro-benzo[b][1,4]dioxin-5-yl)-5-(trifluoromethyl)-7H-pyrrolo[2,3-d]pyrimidine-2,4-diamine], for which the IC50 on human GST-CLK1 was 0.101 to 0.3 µM; at TTK, < 0.1 µM. In the experiment with IL-6, the inhibition at 0.5 µM was 21%.
For the compound `COCCNc1nc(Nc2ccc(C(=O)N3CCN(C4COC4)CC3)c3c2OCCO3)nc2[nH]cc(C(F)(F)F)c12` [Example 403, (8-((4-((2-methoxyethyl)-amino)-5-(trifluoromethyl)-7H-pyrrolo[2,3-d]pyrimidin-2-yl)amino)-2,3-dihydrobenzo[b] [1,4]dioxin-5-yl) (4-(oxetan-3-yl)piperazin-1-yl)methanone], the IC50 against human GST-CLK1 and against TTK was < 0.1 µM throughout. The inhibition at 0.5 µM in the experiment on IL-6 was 30.1%.
With `O=C(c1ccc(Nc2nc(NC3CCCC3)c3c(C(F)(F)F)c[nH]c3n2)c2c1OCCO2)N1CCN(C2COC2)CC1` [Example 414, (8-((4-(cyclopentyl-amino)-5-(trifluoromethyl)-7H-pyrrolo[2,3-d]pyrimidin-2-yl)amino)-2,3-dihydrobenzo[b] [1,4]dioxin-5-yl) (4-(oxetan-3-yl)piperazin-1-yl)methanone], the IC50 at human GST-CLK1 and at TTK was < 0.1 µM each time. In addition, the inhibition at 0.5 µM in the experiment with IL-6 is 47.3%.
In the case of `COCCNc1nc(Nc2ccc(C(=O)N3CCC(N4CCOCC4)CC3)c3c2OCC3)nc2[nH]cc(C#N)c12` [Example 359, 4-((2-methoxy-ethyl)ami-no)-2-((4-(4-morpholino-piperidine-1-carbonyl)-2,3-dihydro-benzofuran-7-yl)amino)-7H-pyrrolo[2,3-d]pyrimidine-5-carbonitrile], the IC50 on human GST-CLK1 and on TTK was < 0.1 µM in each case. In addition, the inhibition at 0.5 µM in the experiment on IL-6 is 32%.
With `CNc1nc(Nc2ccc(C(=O)N3CC[C@H](N4CCOCC4)C3)c3c2OCC3)nc2[nH]cc(C(F)(F)F)c12` [Example 236, (S)-(7-((4-(methylamino)-5-(trifluoromethyl)-7H-pyrrolo[2,3-d]pyrimidin-2-yl)amino)-2,3-dihydrobenzofuran-4-yl)(3-morpholinopyrrolidin-1-yl)methanone], the IC50 on human GST-CLK1 is < 0.1 µM. In addition, the inhibition at 0.5 µM in the experiment with IL-6 was found to be 22.9%.
For `O=C(c1ccc(Nc2nc(NC3CC3)c3c(C(F)(F)F)c[nH]c3n2)c2c1CCO2)N1CCC(N2CCOCC2)CC1` [Example 434, (7-((4-(cyclopropyl-amino)5-(trifluoromethyl)-7H-pyrrolo[2,3-d]pyrimidin-2-yl)amino)-2,3-dihydrobenzo-furan-4-yl)(4-morpho-linopiperidin-1-yl)methanone], the IC50 on human GST-CLK1 and at TTK was < 0.1 µM in each case. The inhibition at 0.5 µM in the experiment on IL-6 was determined as 34.1%.
For `O=C(c1ccc(Nc2nc(NC3CCC3)c3c(C(F)(F)F)c[nH]c3n2)c2c1OCCO2)N1CCN(C2COC2)CC1` [Example 407, (8-((4-(cyclo-butylamino)-5-(trifluoromethyl)-7H-pyrrolo[2,3-d]pyrimidin-2-yl)amino)-2,3-dihydrobenzo[b] [1,4]dioxin-5-yl) (4-(oxetan-3-yl)piperazin-1-yl)methanone], the IC50 against human GST-CLK1 was < 0.1 µM. Further, the inhibition at 0.5 µM in the experiment on IL-6 is 20.2%.
For `CNc1nc(Nc2ccc(C(=O)N3CCC(N4CCOCC4)CC3)c3c2OCC3)nc2[nH]cc(C(F)(F)F)c12` [Example 217, (7-((4-(methylamino)-5-(trifluoromethyl)-7H-pyrrolo[2,3-d]pyrimidin-2-yl)amino)-2,3-dihydrobenzofuran-4-yl)(4-morpholinopiperidin-1-yl)methanone], the IC50 at human GST-CLK1 and against TTK was < 0.1 µM in each case. In the experiment with IL-6, the inhibition at 0.5 µM turned out to be 23.4%.
In the case of `COc1cc(S(=O)(=O)N2CCC(N3C[C@H]4C[C@@H]3CO4)CC2)ccc1Nc1nc(C2CC2)c2c(C(F)(F)F)c[nH]c2n1` [Example 473, N-(4-((4-((1R,4R)-2-oxa-5-azabicyclo[2.2.1]heptan-5-yl)piperidin-1-yl)sulfonyl)-2-methoxyphenyl)-4-cyclopropyl-5-(trifluoromethyl)-7H-pyrrolo[2,3-d]pyrimidin-2-amine], in the experiment on IL-6, the inhibition at 0.5 µM turned out to be 31%. Besides, the IC50 against TTK is < 0.1 µM.
As for `CCNc1nc(Nc2ccc(C(=O)N3CCC(N4CCOCC4)CC3)c3c2OCC3)nc2[nH]cc(C#N)c12` [Example 347, 4-(ethylamino)-2-((4-(4-morpholino-piperidine-1-carbonyl)-2,3-dihydro-benzofuran-7-yl)amino)-7H-pyrrolo[2,3-d]pyrimidine-5-carbonitrile], at human GST-CLK1, the IC50 was < 0.1 µM. Further, the inhibition at 0.5 µM in the experiment on IL-6 is 14.1%.
Regarding `CCCNc1nc(Nc2ccc(C(=O)N3CCC(N4CCOCC4)CC3)c3c2OCC3)nc2[nH]cc(C(F)(F)F)c12` [Example 446, (4-morpholino-piperidin-1-yl)(7-((4-(propylamino)-5-(trifluoromethyl)-7H-pyrrolo[2,3-d]pyrimidin-2-yl)amino)-2,3-dihydrobenzo-furan-4-yl)methanone], the IC50 against human GST-CLK1 and on TTK was < 0.1 µM in each case. Further, the inhibition at 0.5 µM in the experiment on IL-6 was 17.3%.
Regarding `O=C(c1ccc(Nc2nc(NCC3CC3)c3c(C(F)(F)F)c[nH]c3n2)c2c1CCO2)N1CCC(N2CCOCC2)CC1` [Example 461, (7-((4-((cyclo-propylmeth-yl)amino)-5-(trifluoromethyl)-7H-pyrrolo[2,3-d]pyrimidin-2-yl)amino)-2,3-dihydrobenzo-furan-4-yl)(4-morpho-linopiperidin-1-yl)methanone], on human GST-CLK1, the IC50 was < 0.1 µM. Besides, the inhibition at 0.5 µM in the experiment on IL-6 worked out at 25.7%.
`CCNc1nc(Nc2ccc(C(=O)N3CC[C@H](N4CCOCC4)C3)c3c2OCC3)nc2[nH]cc(C(F)(F)F)c12` [Example 475, (S)-(7-((4-(ethylamino)-5-(trifluoromethyl)-7H-pyrrolo[2,3-d]pyrimidin-2-yl)amino)-2,3-dihydrobenzo-furan-4-yl)(3-morpholino-pyrrolidin-1-yl)methanone]: the IC50 on human GST-CLK1 was < 0.1 µM. Further, the inhibition at 0.5 µM in the experiment with IL-6 is 42.5%.
